Drawing on US9440969B2, “Compounds and methods for kinase modulation, and indications therefor” (PLEXXIKON INC., priority 2009, dated 2016), this text covers IC50 for 16 compounds.

One assay concerns the target B-Raf V600E (Homo sapiens, UniProt P15056, V600E). In words: B-Raf V600E kinase activity assay (AlphaScreen, biotin-MEK1 substrate). To be noted: 100 μM ATP, 100 nM biotin-MEK1, 45 minutes at room temperature, read-out: Biochemical activity (IC50 μM) V600E. The method, then:
(§1) Assays for biochemical and cell based activity are known in the art, for example, as described in PCT publication WO 2007/002433, the disclosure of which is hereby incorporated by reference as it relates to such assays. For example, the biochemical activity IC50 values are determined with respect to inhibition of B-Raf kinase activity, c-Raf-1 kinase activity, or B-Raf V600E kinase activity, where inhibition of phosphorylation of a peptide substrate is measured as a function of compound concentration. Compounds to be tested are diluted in dimethyl sulfoxide to a concentration of 0.1 mM. These are serially diluted 15 μL into 30 μL of dimethyl sulfoxide seven times in 96 well plates for a total of 8 dilution points, and for each dilution point 1 μL is added to a well of an assay plate. Plates are prepared such that each well in a 384 well plate contains 1 μL of compound in 10 μL, volume with 0.1 ng Raf enzyme (i.e. any of B-Raf, c-Raf-1 or B-Raf V600E, Upstate Biotechnology or prepared by methods known to one of skill in the art), 50 mM HEPES, pH 7.0, 50 mM NaCl, 2 mM MgCl2, 1 mM MnCl2, 0.01% Tween-20, 1 mM DTT, and 100 nM biotin-MEK1 as substrate. The reaction is started with addition of 10 μL of 200 μM ATP (i.e. final 100 μM ATP). After incubation of the kinase reaction for 45 minutes at room temperature, 5 μL/well of Stop Solution is added (25 mM Hepes pH 7.5, 100 mM EDTA, 0.01% BSA with donor beads (Streptavidin coated beads, Perkin Elmer), acceptor beads (Protein A coated, Perkin Elmer), and anti phosphor MEK1/2 antibody (CellSignal), each at final concentration 10 μg/mL). The plates are incubated for 3 hours at room temperature and read on Envision reader (Perkin Elmer). Phosphorylation of Mek1 results in binding of the anti-phosphor-MEK1/2 antibody and association of the donor and acceptor beads such that signal correlates with kinase activity. The signal vs. compound concentration is used to determine the IC50.
A general note: In Alpha technology, singlet oxygen from a donor bead excites a nearby acceptor bead.

A further assay concerns the target c-Raf-1 (Homo sapiens, UniProt P04049). Nature of the assay: c-Raf-1 kinase activity assay (AlphaScreen, biotin-MEK1 substrate). The note with it: 100 μM ATP, 100 nM biotin-MEK1, 45 minutes at room temperature; read-out: Biochemical activity (IC50 μM) c-Raf-1. The method, then: as §1
The target of the next assay is B-Raf (Homo sapiens, UniProt P15056). Nature of the assay: B-Raf kinase activity assay (AlphaScreen, biotin-MEK1 substrate). The note with it: 100 μM ATP, 100 nM biotin-MEK1, 45 minutes at room temperature; read-out: Biochemical activity (IC50 μM) B-Raf. The method, then:
as §1

A value given as a limit tells only on which side of the number the result lay.

c-Raf-1, sequence (P04049 whole entry Y340D/Y341D, form open): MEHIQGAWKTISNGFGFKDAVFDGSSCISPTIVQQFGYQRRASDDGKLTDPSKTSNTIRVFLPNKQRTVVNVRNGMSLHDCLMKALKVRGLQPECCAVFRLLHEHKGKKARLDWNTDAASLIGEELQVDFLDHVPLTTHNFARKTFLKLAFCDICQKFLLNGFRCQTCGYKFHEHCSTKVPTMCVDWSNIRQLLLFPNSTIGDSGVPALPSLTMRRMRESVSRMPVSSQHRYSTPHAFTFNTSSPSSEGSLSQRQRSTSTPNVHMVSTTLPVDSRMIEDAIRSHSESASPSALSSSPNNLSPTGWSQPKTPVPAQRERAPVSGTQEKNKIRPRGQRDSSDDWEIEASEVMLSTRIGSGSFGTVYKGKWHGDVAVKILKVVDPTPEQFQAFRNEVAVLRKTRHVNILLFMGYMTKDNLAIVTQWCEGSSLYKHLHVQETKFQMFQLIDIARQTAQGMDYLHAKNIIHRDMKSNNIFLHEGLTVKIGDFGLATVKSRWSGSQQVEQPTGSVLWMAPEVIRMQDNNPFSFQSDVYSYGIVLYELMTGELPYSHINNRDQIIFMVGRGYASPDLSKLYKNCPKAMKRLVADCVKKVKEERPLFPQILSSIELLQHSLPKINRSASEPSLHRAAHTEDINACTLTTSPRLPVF
B-Raf, sequence (P15056 whole entry): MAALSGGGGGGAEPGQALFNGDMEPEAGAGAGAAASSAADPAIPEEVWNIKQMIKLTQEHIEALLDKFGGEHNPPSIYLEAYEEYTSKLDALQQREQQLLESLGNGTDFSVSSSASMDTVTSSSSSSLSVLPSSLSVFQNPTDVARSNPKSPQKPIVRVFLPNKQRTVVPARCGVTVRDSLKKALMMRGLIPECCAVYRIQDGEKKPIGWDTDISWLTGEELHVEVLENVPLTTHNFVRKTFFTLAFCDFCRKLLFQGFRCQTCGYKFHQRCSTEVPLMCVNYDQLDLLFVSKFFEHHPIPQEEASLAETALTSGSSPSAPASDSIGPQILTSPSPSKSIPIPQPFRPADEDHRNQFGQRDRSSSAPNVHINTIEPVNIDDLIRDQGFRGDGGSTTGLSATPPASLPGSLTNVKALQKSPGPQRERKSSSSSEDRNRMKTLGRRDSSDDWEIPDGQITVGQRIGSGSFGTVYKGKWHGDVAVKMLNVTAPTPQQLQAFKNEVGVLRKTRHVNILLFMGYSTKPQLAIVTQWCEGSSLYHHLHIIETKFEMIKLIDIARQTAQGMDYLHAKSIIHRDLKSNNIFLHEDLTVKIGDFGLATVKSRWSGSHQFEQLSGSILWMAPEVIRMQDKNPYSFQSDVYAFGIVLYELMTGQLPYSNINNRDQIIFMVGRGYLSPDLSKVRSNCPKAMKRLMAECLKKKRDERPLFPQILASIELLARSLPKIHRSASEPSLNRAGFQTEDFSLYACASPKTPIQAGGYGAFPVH
B-Raf V600E, sequence (P15056 whole entry V600E): as the sequence (P15056 whole entry) above, with V600E counted along it

Consider `CS(=O)(=O)c1cncc(-c2cnc3[nH]cc(C(=O)c4c(F)ccc(NS(=O)(=O)c5cc(F)ccc5F)c4F)c3c2)c1` [P-1407, N-{2,4-Difluoro-3-[5-(5-methanesulfonyl-pyridin-3-yl)-1H-pyrrolo[2,3-b]pyridine-3-carbonyl]-phenyl}-2,5-difluoro-benzenesulfonamide], for which the IC50 on B-Raf V600E, on c-Raf-1 and at B-Raf was less than 0.1 µM throughout.
For the compound `CCCS(=O)(=O)Nc1ccc(F)c(C(=O)c2c[nH]c3ncc(NC(=O)C4C=C(C)ON4)cc23)c1F` (stereo not drawn) [P-1802, 5-Methyl-2,3-dihydro-isoxazole-3-carboxylic acid {3-[2,6-difluoro-3-(propane-1-sulfonylamino)-benzoyl]-1H-pyrrolo[2,3-b]pyridin-5-yl}-amide], the IC50 at B-Raf V600E was less than 0.1 µM; at c-Raf-1, approximately 0.1 µM; at B-Raf, less than 1 µM.
For `NS(=O)(=O)c1ccc(-c2cnc3[nH]cc(C(=O)c4c(F)ccc(NS(=O)(=O)c5cc(F)ccc5F)c4F)c3c2)cc1` [P-1707, N-{2,4-Difluoro-3-[5-(4-sulfamoyl-phenyl)-1H-pyrrolo[2,3-b]pyridine-3-carbonyl]-phenyl}-2,5-difluoro-benzenesulfonamide], in that order: less than 0.1 µM, less than 0.1 µM and less than 0.1 µM.
On the same counts, the results for `Cn1cc(-c2cnc3[nH]cc(C(=O)c4c(F)ccc(NS(=O)(=O)c5cc(F)ccc5F)c4F)c3c2)cn1` [P-1009, N-{2,4-Difluoro-3-[5-(1-methyl-1H-pyrazol-4-yl)-1H-pyrrolo[2,3-b]pyridine-3-carbonyl]-phenyl}-2,5-difluoro-benzenesulfonamide] are less than 0.1 µM, less than 0.1 µM and less than 0.1 µM.
For `O=C(c1c(F)ccc(NS(=O)(=O)c2cc(F)ccc2F)c1F)c1c[nH]c2ncc(-c3ccncc3)cc12` [P-1403, N-[2,4-Difluoro-3-(5-pyridin-4-yl-1H-pyrrolo[2,3-b]pyridine-3-carbonyl)-phenyl]-2,5-difluoro-benzenesulfonamide], in that order: less than 0.1 µM, less than 0.1 µM and less than 0.1 µM.
`CCCS(=O)(=O)Nc1ccc(F)c(C(=O)c2c[nH]c3ncc(-c4cccc5nccn45)cc23)c1F` [P-0018, Propane-1-sulfonic acid [2,4-difluoro-3-(5-imidazo[1,2-a]pyridin-5-yl-1H-pyrrolo[2,3-b]pyridine-3-carbonyl)-phenyl]-amide]: the IC50 at B-Raf V600E, at c-Raf-1 and on B-Raf was less than 0.1 µM in each case.
With `O=C(c1c(F)ccc(NS(=O)(=O)c2cc(F)ccc2F)c1F)c1c[nH]c2ncc(-c3ccncc3F)cc12` [P-1405, N-{2,4-Difluoro-3-[5-(3-fluoro-pyridin-4-yl)-1H-pyrrolo[2,3-b]pyridine-3-carbonyl]-phenyl}-2,5-difluoro-benzenesulfonamide], the IC50 on B-Raf V600E, on c-Raf-1 and at B-Raf was less than 0.1 µM in each case.
As for `O=C(c1c(F)ccc(NS(=O)(=O)c2cc(F)ccc2F)c1F)c1c[nH]c2ncc(-c3cncnc3)cc12` [P-1500, N-[2,4-Difluoro-3-(5-pyrimidin-5-yl-1H-pyrrolo[2,3-b]pyridine-3-carbonyl)-phenyl]-2,5-difluoro-benzenesulfonamide], the IC50 at B-Raf V600E, at c-Raf-1 and on B-Raf was less than 0.1 µM in each case.
With `CCCS(=O)(=O)Nc1ccc(F)c(C(=O)c2c[nH]c3ncc(-c4c(C)nn(-c5nnn[nH]5)c4C)cc23)c1F` [P-1006, Propane-1-sulfonic acid (3-{5-[3,5-dimethyl-1-(1H-tetrazol-5-yl)-1H-pyrazol-4-yl]-1H-pyrrolo[2,3-b]pyridine-3-carbonyl}-2,4-difluoro-phenyl)-amide], the IC50 at B-Raf V600E, on c-Raf-1 and at B-Raf was less than 0.1 µM in each case.
Regarding `CCCS(=O)(=O)Nc1ccc(F)c(C(=O)c2c[nH]c3ncc(-c4ccc5ncncc5c4)cc23)c1F` [P-0026, Propane-1-sulfonic acid [2,4-difluoro-3-(5-quinazolin-6-yl-1H-pyrrolo[2,3-b]pyridine-3-carbonyl)-phenyl]-amide], the IC50 on B-Raf V600E, at c-Raf-1 and on B-Raf was less than 0.1 µM each time.
For the compound `CCCS(=O)(=O)Nc1ccc(F)c(C(=O)c2c[nH]c3ncc(-c4cnc(-n5cccn5)s4)cc23)c1F` [P-1109, Propane-1-sulfonic acid {2,4-difluoro-3-[5-(2-pyrazol-1-yl-thiazol-5-yl)-1H-pyrrolo[2,3-b]pyridine-3-carbonyl]-phenyl}-amide], the IC50 on B-Raf V600E, on c-Raf-1 and at B-Raf was less than 0.1 µM throughout.
Turning to `CNS(=O)(=O)c1ccc(-c2cnc3[nH]cc(C(=O)c4c(F)ccc(NS(=O)(=O)c5cc(F)ccc5F)c4F)c3c2)cc1` [P-1706, N-{2,4-Difluoro-3-[5-(4-methylsulfamoyl-phenyl)-1H-pyrrolo[2,3-b]pyridine-3-carbonyl]-phenyl}-2,5-difluoro-benzenesulfonamide], the IC50 at B-Raf V600E, at c-Raf-1 and on B-Raf was less than 0.1 µM each time.
`CCCS(=O)(=O)Nc1ccc(F)c(C(=O)c2c[nH]c3ncc(-c4c(C)nn(S(=O)(=O)c5cn(C)nc5C)c4C)cc23)c1F` [P-1007, Propane-1-sulfonic acid (3-{5-[1-(1,3-dimethyl-1H-pyrazole-4-sulfonyl)-3,5-dimethyl-1H-pyrazol-4-yl]-1H-pyrrolo[2,3-b]pyridine-3-carbonyl}-2,4-difluoro-phenyl)-amide]: the IC50 at B-Raf V600E, at c-Raf-1 and at B-Raf was less than 0.1 µM each time.
Regarding `O=C(c1c(F)ccc(NS(=O)(=O)c2cc(F)ccc2F)c1F)c1c[nH]c2ncc(-c3cnco3)cc12` [P-1300, N-[2,4-Difluoro-3-(5-oxazol-5-yl-1H-pyrrolo[2,3-b]pyridine-3-carbonyl)-phenyl]-2,5-difluoro-benzenesulfonamide], the IC50 at B-Raf V600E, at c-Raf-1 and at B-Raf was less than 0.1 µM in each case.
As to `CCCS(=O)(=O)Nc1ccc(F)c(C(=O)c2c[nH]c3ncc(NC(=O)c4cccnc4)cc23)c1F` [P-1800, N-{3-[2,6-Difluoro-3-(propane-1-sulfonylamino)-benzoyl]-1H-pyrrolo[2,3-b]pyridin-5-yl}-nicotinamide], the IC50 was less than 0.1 µM on B-Raf V600E, less than 0.1 µM at c-Raf-1 and less than 1 µM on B-Raf.
Regarding `O=C(c1c(F)ccc(NS(=O)(=O)c2cc(F)ccc2F)c1F)c1c[nH]c2ncc(-c3cccnc3)cc12` [P-1402, N-[2,4-Difluoro-3-(5-pyridin-3-yl-1H-pyrrolo[2,3-b]pyridine-3-carbonyl)-phenyl]-2,5-difluoro-benzenesulfonamide], the IC50 on B-Raf V600E, at c-Raf-1 and at B-Raf was less than 0.1 µM in each case.

A word on the IC50: it is the midpoint of a concentration-inhibition curve.
